In US5328902A, “7-(substituted)-9-[(substituted glycyl)amido]-6-demethyl-6-deoxytetracyclines” (American Cyanamid Co., priority 1992, dated 1994):
≈ marks a conversion by molar mass, not a printed value. Where a name gives a salt, the structure may show the parent alone.

How the values were obtained:
Assay type in all cases: cell-based
[1] = test system: E. coli UBMS 88-1 Tet B; assay: microbe, parasite or virus in culture; conditions: E. coli UBMS 88-1 Tet B; 18 hours at 35° C.
[2] = test system: E. coli MC 4100 Tet sens.; assay: MIC, agar dilution
[3] = test system: E. coli PRP1 Tet A; assay: microbe, parasite or virus in culture; conditions: E. coli PRP1 Tet A
[4] = test system: E. coli J3272 Tet C; assay: microbe, parasite or virus in culture; conditions: E. coli J3272 Tet C
[5] = test system: E. coli UBMS 89-1 Tet M; assay: microbe, parasite or virus in culture; conditions: E. coli UBMS 89-1 Tet M
[6] = test system: E. coli UBMS 89-2 Tet sens.; assay: MIC, agar dilution; conditions: E. coli UBMS 89-2 Tet sens.
[7] = test system: E. coli J2175; assay: MIC, agar dilution; conditions: E. coli J2175
[8] = test system: E. coli BAJ9003 IMP MUT; assay: microbe, parasite or virus in culture; conditions: E. coli BAJ9003 IMP MUT
[9] = test system: E. coli UBMS 90-4 Tet M; assay: microbe, parasite or virus in culture; conditions: E. coli UBMS 90-4 Tet M
[10] = test system: E. coli UBMS 90-5; assay: MIC, agar dilution
[11] = test system: E. coli #311 (MP); assay: MIC, agar dilution; conditions: E. coli #311 (MP)
[12] = test system: E. coli ATCC 25922; assay: MIC, agar dilution; conditions: E. coli ATCC 25922
[13] = test system: E. coli J3272 Tet D; assay: microbe, parasite or virus in culture; conditions: E. coli J3272 Tet D
[14] = test system: S. mariescens FPOR 8733; assay: MIC, agar dilution
[15] = test system: Ps. acruginosa ATCC 27853; assay: MIC, agar dilution; conditions: Ps. acruginosa ATCC 27853
[16] = test system: S. aureus UBMS 88-4; assay: MIC, agar dilution; conditions: S. aureus UBMS 88-4
[17] = test system: S. aureus UBMS 88-5 Tet M; assay: microbe, parasite or virus in culture; conditions: S. aureus UBMS 88-5 Tet M
[18] = test system: S. aureus UBMS 88-7 Tet K; assay: microbe, parasite or virus in culture; conditions: S. aureus UBMS 88-7 Tet K
[19] = test system: S. aureus UBMS 90-1 Tet M; assay: microbe, parasite or virus in culture; conditions: S. aureus UBMS 90-1 Tet M
[20] = test system: S. aureus UBMS 90-3; assay: MIC, agar dilution; conditions: S. aureus UBMS 90-3
[21] = test system: S. aureus UBMS 90-2 Tet M; assay: microbe, parasite or virus in culture; conditions: S. aureus UBMS 90-2 Tet M
[22] = test system: S. aureus IVES 2943; assay: MIC, agar dilution; conditions: S. aureus IVES 2943
[23] = test system: S. aureus ROSE (MP); assay: MIC, agar dilution; conditions: S. aureus ROSE (MP)
[24] = test system: S. aureus SMITH (MP); assay: MIC, agar dilution; conditions: S. aureus SMITH (MP)
[25] = test system: S. aureus IVES 1 983; assay: MIC, agar dilution; conditions: S. aureus IVES 1 983
[26] = test system: S. aureus ATCC 29213; assay: MIC, agar dilution; conditions: S. aureus ATCC 29213
[27] = test system: S. hemolyticus AVHAH 88-3; assay: MIC, agar dilution; conditions: S. hemolyticus AVHAH 88-3
[28] = test system: Enterococcus 12201; assay: MIC, agar dilution; conditions: Enterococcus 12201
[29] = test system: E. faecalis ATCC 29212; assay: MIC, agar dilution; conditions: E. faecalis ATCC 29212
[30] = test system: S. aureus NEMC 8769; assay: MIC, agar dilution; conditions: S. aureus NEMC 8769
[31] = test system: tetracycline sensitive and resistant Gram-positive and Gram-negative bacteria; assay: In vitro antibacterial activity, summary in words of Table I

717S-(7alpha,10aalpha)]-N-[9-(Aminocarbonyl)4,7-bis(dimethylamino)-5,5a,6,6a,7,10,10a,12-octahydro-1,8,10a,11-tetrahydroxy-10,12-dioxo-2-naphthacenyl]-4-methyl-l-piperazineacetamide dihydrochloride
MIC [1]: 8 µg/mL
MIC [2]: 1 µg/mL
MIC [3]: 16 µg/mL
MIC [4]: 8 µg/mL
MIC [5]: 8 µg/mL
MIC [6]: 8 µg/mL
MIC [7]: 8 µg/mL
MIC [8]: 0.5 µg/mL
MIC [9]: 8 µg/mL
MIC [10]: 8 µg/mL
MIC [11]: 8 µg/mL
MIC [12]: 8 µg/mL
MIC [13]: 4 µg/mL
MIC [14]: > 32 µg/mL
MIC [15]: > 32 µg/mL
MIC [16]: 2 µg/mL
MIC [17]: 4 µg/mL
MIC [18]: 16 µg/mL
MIC [19]: 8 µg/mL
MIC [20]: 2 µg/mL
MIC [21]: 2 µg/mL
MIC [22]: > 32 µg/mL
MIC [23]: > 32 µg/mL
MIC [24]: 0.5 µg/mL
MIC [25]: > 32 µg/mL
MIC [26]: 2 µg/mL
MIC [27]: 16 µg/mL
MIC [28]: 2 µg/mL
MIC [29]: 1 µg/mL

CCCCCCCNCC(=O)Nc1cc(N(C)C)c2c(c1O)C(=O)C1=C(O)[C@]3(O)C(=O)C(C(N)=O)=C(O)[C@@H](N(C)C)C3CC1C2 (stereo partly drawn) [J, [4S-(4alpha,12aalpha)]-4,7-Bis(dimethylamino)-9-[[(heptylamino)acetyl]amino]-l,4,4a,5,5a,6,11,12a-octahydro-3,10,12,12a-tetrahydroxy-1,11-dioxo-2-naphthacenecarboxamide dihydrochloride]
MIC [1]: 2 µg/mL
MIC [2]: 1 µg/mL
MIC [3]: 2 µg/mL
MIC [4]: 2 µg/mL
MIC [5]: 0.5 µg/mL
MIC [6]: 2 µg/mL
MIC [7]: 2 µg/mL
MIC [8]: 0.25 µg/mL
MIC [9]: 2 µg/mL
MIC [10]: 2 µg/mL
MIC [11]: 2 µg/mL
MIC [12]: 2 µg/mL
MIC [13]: 2 µg/mL
MIC [14]: 16 µg/mL
MIC [15]: > 32 µg/mL
MIC [30]: no
MIC [16]: 0.5 µg/mL
MIC [17]: 0.5 µg/mL
MIC [18]: 1 µg/mL
MIC [19]: 1 µg/mL
MIC [21]: 0.5 µg/mL
MIC [22]: 0.5 µg/mL
MIC [23]: 2 µg/mL
MIC [25]: 1 µg/mL
MIC [26]: 0.5 µg/mL
MIC [27]: 2 µg/mL
MIC [28]: 0.5 µg/mL

CN(C)c1cc(NC(=O)CNCC2CC2)c(O)c2c1CC1CC3C(N(C)C)C(O)=C(C(N)=O)C(=O)C3(O)C(O)=C1C2=O.Cl.Cl (stereo not shown) [K]
MIC [1]: 0.5 µg/mL
MIC [2]: 0.12 µg/mL
MIC [3]: 4 µg/mL
MIC [5]: 0.5 µg/mL
MIC [6]: 0.5 µg/mL
MIC [8]: 0.12 µg/mL
MIC [13]: 0.25 µg/mL
MIC [14]: 8 µg/mL
MIC [15]: 16 µg/mL
MIC [30]: 1 µg/mL
MIC [16]: 0.5 µg/mL
MIC [17]: 1 µg/mL
MIC [18]: 4 µg/mL
MIC [19]: 1 µg/mL
MIC [20]: 0.5 µg/mL
MIC [21]: 0.5 µg/mL
MIC [22]: 8 µg/mL
MIC [24]: 0.5 µg/mL
MIC [25]: 8 µg/mL
MIC [26]: 1 µg/mL
activity against E. coli tetA, E. coli tetC and E. coli tetD [31]: good activity
in vitro activity against tetracycline resistant strains containing tetM and tetB resistance determinants ([31]; S. aureus UBMS 88-5, 90-1, 90-2, E. coli UBMS 89-1, 90-4, 88-1, TN10C tetB): excellent
activity against recently isolated bacteria from clinical sources compared with minocycline ([31]; clinical isolates): superior to that of minocycline
activity against susceptible strains compared with minocycline ([31]; susceptible strains): equallyas effective as minocycline

CN(C)c1cc(NC(=O)CNCC(F)(F)F)c(O)c2c1CC1CC3C(N(C)C)C(O)=C(C(N)=O)C(=O)C3(O)C(O)=C1C2=O (stereo not drawn) [S, [4S-(4alpha,12aalpha)]-4,7-Bis(dimethylamino)-1,4,4a,5,5a,6,11,12a-octahydro-3,10, 12,12a-tetrahydroxy-1,11-dioxo-9-[[[2,2,2-trifluoroethyl)amino]acetyl]amino-2-naphthacenecarboxamide]
MIC [1]: 32 µg/mL (≈ 52.3 µM)
MIC [2]: 16 µg/mL (≈ 26.2 µM)
MIC [5]: 32 µg/mL (≈ 52.3 µM)
MIC [6]: > 32 µg/mL
MIC [7]: > 32 µg/mL
MIC [10]: > 32 µg/mL
MIC [11]: > 32 µg/mL
MIC [12]: > 32 µg/mL
MIC [14]: > 32 µg/mL
MIC [15]: > 32 µg/mL
MIC [30]: 4 µg/mL (≈ 6.54 µM)
MIC [16]: 4 µg/mL (≈ 6.54 µM)
MIC [17]: 8 µg/mL (≈ 13.1 µM)
MIC [18]: 32 µg/mL (≈ 52.3 µM)
MIC [19]: 16 µg/mL (≈ 26.2 µM)
MIC [20]: 4 µg/mL (≈ 6.54 µM)
MIC [21]: 4 µg/mL (≈ 6.54 µM)
MIC [22]: > 32 µg/mL
MIC [25]: > 32 µg/mL
MIC [26]: 4 µg/mL (≈ 6.54 µM)
MIC [27]: 16 µg/mL (≈ 26.2 µM)
MIC [28]: 4 µg/mL (≈ 6.54 µM)
MIC [29]: 2 µg/mL (≈ 3.27 µM)

[4S-(4alpha,12aalpha)]-4,7-Bis(dimethylamino)-1,4,4a,5,5a,6,11,12a-octahydro-3,10, 12,12a-tetrahydroxy-1,11-dioxo-9-[[(undecylamino)acetyl]amino]-2-naphthacenecarboxamide dihydrochloride
MIC [1]: 32 µg/mL
MIC [2]: 2 µg/mL
MIC [3]: 32 µg/mL
MIC [5]: 16 µg/mL
MIC [8]: 1 µg/mL
MIC [9]: 32 µg/mL
MIC [11]: 8 µg/mL
MIC [13]: 32 µg/mL
MIC [14]: > 32 µg/mL
MIC [15]: > 32 µg/mL
MIC [30]: 0.5 µg/mL
MIC [16]: 0.5 µg/mL
MIC [17]: 16 µg/mL
MIC [18]: 2 µg/mL
MIC [19]: 16 µg/mL
MIC [20]: 0.5 µg/mL
MIC [21]: 4 µg/mL
MIC [23]: 16 µg/mL
MIC [24]: 0.5 µg/mL
MIC [26]: 1 µg/mL
MIC [28]: 4 µg/mL
MIC [29]: 2 µg/mL

[4S-(4alpha,12aalpha)]-4,7-bis(dimethylamino)-1,4,4a,5,5a,6,11,12a-octahydro-3,10, 12,12a-tetrahydroxy-1,11-dioxo-9-[[[(2pyridinylmethyl)amino]acetyl]amino-2-naphthacenecarboxamide dihydrochloride
MIC [1]: 16 µg/mL
MIC [2]: 2 µg/mL
MIC [3]: 32 µg/mL
MIC [4]: 16 µg/mL
MIC [5]: 8 µg/mL
MIC [6]: 16 µg/mL
MIC [7]: 16 µg/mL
MIC [8]: 1 µg/mL
MIC [9]: 8 µg/mL
MIC [10]: 16 µg/mL
MIC [11]: 8 µg/mL
MIC [12]: 8 µg/mL
MIC [13]: 8 µg/mL
MIC [14]: > 32 µg/mL
MIC [15]: > 32 µg/mL
MIC [30]: 8 µg/mL
MIC [16]: 8 µg/mL
MIC [17]: 8 µg/mL
MIC [18]: 32 µg/mL
MIC [19]: 8 µg/mL
MIC [20]: 4 µg/mL
MIC [21]: 8 µg/mL
MIC [22]: > 32 µg/mL
MIC [24]: 4 µg/mL
MIC [25]: > 32 µg/mL
MIC [26]: 8 µg/mL
MIC [27]: 16 µg/mL
MIC [28]: 4 µg/mL
MIC [29]: 2 µg/mL
